{
  "source": "patent US4599336A",
  "about": "“Derivatives of (E)-3-(4-oxo-4H-quinazolin-3-yl)-2-propenamide” (Hoffmann-La Roche Inc., priority 1983, dated 1986)",
  "target": "T1, TXA2 synthase (Homo sapiens, UniProt P24557)",
  "T1 construct": "using microsomal fractions from human platelets as enzyme source; from tissue; host or cells: human platelets, microsomal fraction",
  "T1 sequence (P24557 1-533)": "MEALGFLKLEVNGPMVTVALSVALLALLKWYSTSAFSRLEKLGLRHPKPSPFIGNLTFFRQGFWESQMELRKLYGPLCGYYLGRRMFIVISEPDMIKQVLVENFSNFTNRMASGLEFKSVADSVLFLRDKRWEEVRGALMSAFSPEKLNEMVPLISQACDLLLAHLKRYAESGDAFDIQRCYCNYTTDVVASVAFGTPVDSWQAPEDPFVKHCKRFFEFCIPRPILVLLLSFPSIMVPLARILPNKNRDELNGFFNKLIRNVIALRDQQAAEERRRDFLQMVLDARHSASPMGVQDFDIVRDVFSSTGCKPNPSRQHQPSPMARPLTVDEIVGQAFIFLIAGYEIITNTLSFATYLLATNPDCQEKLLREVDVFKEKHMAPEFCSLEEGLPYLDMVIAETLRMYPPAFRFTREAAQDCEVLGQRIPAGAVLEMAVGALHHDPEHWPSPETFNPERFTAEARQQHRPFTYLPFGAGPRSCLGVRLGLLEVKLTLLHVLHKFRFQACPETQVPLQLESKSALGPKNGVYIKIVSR",
  "experiment": "Thromboxane Synthase Inhibition, In Vitro",
  "format": "biochemical",
  "conditions": "human platelet microsomes; for inhibition at 0.1 µM: at 10^-7 M",
  "protocol": "TXA2 synthase activity is measured by following the conversion of ^14 C-prostaglandin endoperoxide (PGH2) to ^14 C-thromboxane A2 (TXA2) using microsomal fractions from human platelets as enzyme source. In the aqueous incubation medium, the TXA2 decomposes rapidly into TXB2. The amount of TXA2 synthase is adjusted so that under the conditions of the assay approximately 80-90% of the substrate, PGH2, is converted to product in control tubes. To prepare ^14 C--PGH2, ^14 C--AA (50-60 mCi/mmole; Rose Chem.) is incubated with sheep seminal vesicular gland microsomes for 1.5 minutes at 37° C. and then the ^14 C--PGH2 is extracted with diethylether, purified on columns of Sephadex LH-20 or silicic acid, and stored in acetone at -70° C. Incubations are done as follows. Sufficient ^14 C--PGH2 to yield a final substrate concentration of 10 μM (30,000 cpm) is added to the incubation tubes and then the acetone is removed under nitrogen. The tubes are placed in an ice bath and then 215 μl of ice cold phosphate buffered saline, 10 μl of ethanol (control) or of test drug in ethanol, and 25 μl of the microsomal suspension are added with mixing in that order as rapidly as possible. The tubes are incubated at 22° C. for 2 minutes, the reaction is stopped and then the radioactive products and the uncoverted PGH2 are extracted and analyzed by thin layer chromatography. […] The amount of ^14 C--PGH2 converted to products was used as a measure of TXA2 synthase activity. Inhibitors were tested initially at a final concentration of 100 μM. Results obtained with representative compounds of the present invention in this assay are summarized hereafter in Table I.",
  "note": "pIC50: −log10 of the molar value.",
  "data": [
    {"smiles": "CC(C)c1ccc2ncn(/C=C/C(=O)NCCCCc3cccnc3)c(=O)c2c1", "note": "[drawing 12]", "values": [
      {"measurement": "inhibition at 0.1 µM", "result": 48, "unit": "%"}
    ]},
    {"smiles": "CC(C)c1ccc2ncn(/C=C/C(=O)NCCCCn3ccnc3)c(=O)c2c1", "note": "[drawing 15]", "values": [
      {"measurement": "inhibition at 0.1 µM", "result": 72, "unit": "%"}
    ]},
    {"smiles": "CC(C)c1ccc2ncn(/C=C/C(=O)NCCCCc3ccccn3)c(=O)c2c1", "note": "[drawing 17]", "values": [
      {"measurement": "pIC50", "setting": "read-out: TXA2 Synthase Inhibition (concentration bound printed in the % column)", "result": "< 5.00"}
    ]}
  ]
}
